Experimental data as given in patent publication US7678820B2, “Hetero compound” (Astellas Pharma Inc., priority 2006, dated 2010).
Where a name gives a salt, the structure may show the parent alone.

Each compound was assayed on number of the lymphocytes in peripheral blood (assay: Evaluation of peripheral blood lymphopenia in rat). Settings: Rattus norvegicus, Lymphocyte, po, 24 h, read-out: ED50 value after 24 hours.
Format: in vivo
Method: 2) Evaluation of Peripheral Blood Lymphopenia in Rat
The peripheral blood lymphopenia in rat was measured at 24 hours after oral administration in the following manner. Six- to ten-week-old male Lewis rats (Japan Charles river laboratories) were randomly divided into the groups (n=3), and the compound of the present invention was suspended in 0.5% methyl cellulose-containing distilled water, and orally administered with a sonde. At 24 hours after administration, under ether anesthesia, 0.2 ml of blood was collected from ocular fundus. To the blood sample were immediately added EDTA/4K and heparin to prevent clotting, and the number of the lymphocytes in blood was measured with an automatic haematology analyzer (Sysmex Corp.; XT-2000i). For the reduction of the number of the lymphocytes in peripheral blood by the compound of the present invention, the percentage with the number of the lymphocytes in groups administered with 0.5% methyl cellulose-containing distilled water being set at 100%, as performed at the same time was used, and the dose to cause 50% reduction of the number of the lymphocytes in peripheral blood by administration of the compound of the present invention was defined an ED50 value (mg/kg).

Work on `CC(Oc1ccc(-c2nc(-c3cccnc3N)no2)cc1C(F)(F)F)C(F)(F)F` (centres unmarked) [Comparative Compound 2] yielded an ED50 of 8.8 mg/kg.

Same assay, conditions: Rattus norvegicus, Lymphocyte; male Lewis rats, oral administration, 50% reduction of the number of lymphocytes in peripheral blood at 24 hours after administration; read-out: ED50 value after 24 hours

Compared with `Cc1ccc(Cl)cc1-c1noc(-c2ccc(OC(C)C(F)(F)F)c(C(F)(F)F)c2)n1` (centres unmarked) [Comparative Compound 3], `CNc1ncccc1-c1noc(-c2ccc(OC(C)C(F)(F)F)c(C(F)(F)F)c2)n1` (centres unmarked) [Comparative Compound 1] is 2.6-fold lower in ED50: 3.7 mg/kg for the first, 1.4 mg/kg for the second.

`CNc1ncccc1-c1noc(-c2ccc(OC(C)C(F)(F)F)c(Cl)c2)n1.Cl` (centres unmarked) [Comparative Compound 5] and `CNc1ncccc1-c1noc(-c2ccc(O[C@@H](C)C(F)(F)F)c(Cl)c2)n1.Cl` [Comparative Compound 4] cannot be ordered by ED50: greater than 10 mg/kg for the first, greater than 10 mg/kg for the second.

Going from `C[C@H](Oc1ccc(-c2nc(-c3ccc4[nH]cnc4c3)no2)cc1C(F)(F)F)C(F)(F)F.Cl` [Ex 119] to `C[C@H](Oc1ccc(-c2nc(-c3ccc4[nH]cnc4c3)no2)cc1Cl)C(F)(F)F.Cl` [Ex 199], the ED50 rises from 0.071 mg/kg to 0.26 mg/kg (3.7-fold).

Same assay, conditions: rat peripheral blood lymphopenia, 24 hours after oral administration

In the case of `C[C@H](Oc1ccc(-c2nc(-c3ccc4[nH]cnc4c3)no2)cc1C(F)(F)F)C(F)(F)F.Cl` [Ex 119], the “ED50 value after 24 hours, conclusion in words (persistence)” value is reported as “high ED50 value even after 24 hours, indicating persistence”.
`C[C@H](Oc1ccc(-c2nc(-c3ccc4[nH]cnc4c3)no2)cc1Cl)C(F)(F)F.Cl` [Ex 199] was tested, and the “ED50 value after 24 hours, conclusion in words (persistence)” value was “high ED50 value even after 24 hours, indicating persistence”.

The compounds below were run against T1, human S1P1 (Homo sapiens, UniProt P21453) (assay: GTP[γ-35S] bond assay using the membrane of a human S1P1 expressing cell (S1P1 agonist activity)). Settings: membrane of human S1P1 expressing CHO cell; concentration causing 50% of the maximum GTP[γ-35S] reaction.
T1 construct: expressed in transfected cells; membrane fraction used
T1 sequence (P21453 whole entry): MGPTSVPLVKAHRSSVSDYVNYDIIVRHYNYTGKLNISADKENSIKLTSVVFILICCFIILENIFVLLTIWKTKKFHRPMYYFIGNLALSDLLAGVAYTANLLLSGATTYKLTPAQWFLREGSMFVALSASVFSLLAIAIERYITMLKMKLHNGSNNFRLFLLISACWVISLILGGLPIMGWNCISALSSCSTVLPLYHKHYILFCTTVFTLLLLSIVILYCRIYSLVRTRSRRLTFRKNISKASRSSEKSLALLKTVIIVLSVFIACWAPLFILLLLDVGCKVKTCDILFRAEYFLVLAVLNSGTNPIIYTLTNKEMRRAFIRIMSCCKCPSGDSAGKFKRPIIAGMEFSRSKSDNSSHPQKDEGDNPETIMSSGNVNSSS
Format: biochemical
Method: 1) Evaluation of a Receptor Agonist Activity by a GTP[γ-^35S] Bond Assay Using the Membrane of a Human S1P1 Expressing Cell
The in vitro S1P1 agonist activity of the compound of the present invention was evaluated by the increase in the functional bonding activity into the G-Protein of a GTP[γ-^35S] using the membrane of a human S1P1 expressing cell. A cDNA encoding a human S1P1 was cloned from a human colorectal cDNA library, and introduced to an expression vector pcDNA3.1 to construct a S1P1-pcDNA3.1. Then, by Lipofectamine 2000 (GIBCO), the S1P1-pcDNA3.1 was transfected into a CHO cell, and cultured in a Ham's F-12 culture medium containing 10% fetal bovine serum, 100 U/mL Penicillin, 100 μg/mL Streptomycin, and 1 mg/mL G418 disulfate, to obtain a stable, G418-resistant strain. The cultured human S1P1 expressing cells were isolated in a 1 mM EDTA/2Na-containing PBS, and disrupted under ice-cooling by a homogenizer made of glass in a 1 mM Tris HCl (pH 7.4) buffer solution containing 0.1 mM EDTA and a […]. It was centrifuged at […], and a supernatant was further centrifuged at 4° C. for 60 min at 100,000×g, and suspended in a 10 mM Tris HCl (pH 7.4) buffer solution containing 1 mM EDTA. The obtained membrane (0.13 mg/mL) and […] GTP[γ-^35S] […] The FilterMate was dried at 50° C. for 60 min, and Microscinti-o (Packard) was added thereto for measurement by a liquids scintillation counter for a microplate (Packard, TOP count). For evaluation of the human S1P1 agonist activity of the compound of the present invention and the comparative compound, the percentages with the rate of a maximum reaction to make the GTP[γ-^35S] bonds saturated in the presence of the compound being set at 100%, and the rate of the reaction of the GTP[γ-^35S] bonds in the absence of the compound being set at 0% was used, a non-linear regression curve was plotted, and a concentration to cause an agonist activity operating 50% of the maximum reaction was defined as an EC50 value (nM).

Going from `C[C@H](Oc1ccc(-c2nc(-c3cccc4c3ccn4CC(=O)NCCO)no2)cc1C(F)(F)F)C(F)(F)F` [Example 194] to `CC(C)Oc1ccc(-c2nc(-c3cccc4c3ccn4CC(=O)NCCO)no2)cc1C(F)(F)F` [Example 196], the EC50 rises from 2 nM to 5.3 nM (2.6-fold). The first is the more potent here.

First: CC(Oc1ccc(-c2nc(-c3ccc4nc[nH]c4c3)no2)cc1Br)C(F)(F)F (centres unmarked) [Example 64]
Second: CC(Oc1ccc(-c2nc(-c3ccc4nc[nH]c4c3)no2)cc1C#N)C(F)(F)F (centres unmarked) [Example 54]
The EC50 of the first is 2.5-fold higher: 5.7 nM for the first, 2.3 nM for the second. The second is the more potent here.

Compared with `NC(=O)Cn1ccc2c(-c3noc(-c4ccc(OC(CF)CF)c(C(F)(F)F)c4)n3)cccc21` [Example 158], `NC(=O)Cn1ccc2c(-c3noc(-c4ccc(OC(CF)CF)c(Cl)c4)n3)cccc21` [Example 6, 2-[4-(5-{3-chloro-4-[2-fluoro-1-(fluoromethyl)ethoxy]phenyl}-1,2,4-oxadiazol-3-yl)-1H-indol-1-yl]acetamide] is 1.5-fold lower in EC50: 1.8 nM for the first, 1.2 nM for the second.

`CC(Oc1ccc(-c2nc(-c3ccc4[nH]c(N)nc4c3)no2)cc1C(F)(F)F)C(F)(F)F` (centres unmarked) [Example 51] and `Cc1nc2cc(-c3noc(-c4ccc(OC(C)C(F)(F)F)c(C(F)(F)F)c4)n3)ccc2[nH]1` (centres unmarked) [Example 2, 2-methyl-5-{5-[3-(trifluoromethyl)-4-(2,2,2-trifluoro-1-methylethoxy)phenyl]-1,2,4-oxadiazol-3-yl}-1H-benzimidazole hydrochloride] are the same in EC50: 13 nM for the first, 13 nM for the second.

Compared with `CC(Oc1ccc(-c2nc(-c3cccc4[nH]ccc34)no2)cc1C(F)(F)F)C(F)(F)F` (centres unmarked) [Example 67], `CC(Oc1ccc(-c2nc(-c3ccnc4[nH]ccc34)no2)cc1C(F)(F)F)C(F)(F)F` (centres unmarked) [Example 60] is 1.8-fold lower in EC50: 3.7 nM for the first, 2.1 nM for the second. The second is the more potent here.

Compared with `C[C@@H](Oc1ccc(-c2nc(-c3ccc4[nH]cnc4c3)no2)cc1Cl)C(F)(F)F` [Example 200], `CC(Oc1ccc(-c2nc(-c3ccc4[nH]cnc4c3)no2)cc1Cl)C(F)(F)F` (centres unmarked) [Example 53] is 1.6-fold higher in EC50: 3.6 nM for the first, 5.8 nM for the second. The first is the more potent here.

`CC(Oc1ccc(-c2nc(-c3cccc4c3ccn4CC(N)=O)no2)cc1Cl)C(F)(F)F` (centres unmarked) [Example 164] and `Cc1cc(-c2nc(-c3cccc4c3ccn4CC(N)=O)no2)ccc1O[C@@H](C)C(F)(F)F` [Example 147] are within 1.5-fold of each other in EC50: 2.8 nM for the first, 3.2 nM for the second.

`CC(Oc1ccc(-c2nc(-c3cccc4c3ccn4CC(N)=O)no2)cc1C(F)(F)F)C(F)(F)F` (centres unmarked) [Example 181] and `C[C@H](Oc1ccc(-c2nc(-c3cccc4c3ccn4CC(N)=O)no2)cc1C(F)(F)F)C(F)(F)F` [Example 12, 2-[4-(5-{3-(trifluoromethyl)-4-[(1S)-2,2,2-trifluoro-1-methylethoxy]phenyl}-oxadiazol-3-yl)-1H-indol-1-yl]acetamide] are the same in EC50: 4.7 nM for the first, 4.7 nM for the second.

`CC(C)Oc1ccc(-c2nc(-c3cccc4c3ccn4CC(N)=O)no2)cc1Cl` [Example 8] and `CC(C)Oc1ccc(-c2nc(-c3cccc4c3ccn4CC(N)=O)no2)cc1C(F)(F)F` [Example 5, 2-(4-{5-[4-isopropoxy-3-(trifluoromethyl)phenyl]-1,2,4-oxadiazol-3-yl}-1H-indol-1-yl)acetamide] are within 1.5-fold of each other in EC50: 5.4 nM for the first, 5.5 nM for the second.

Compared with `C[C@H](Oc1ccc(-c2nc(-c3ccc4[nH]cnc4c3)no2)cc1C(F)(F)F)C(F)(F)F.Cl` [Ex 119], `CC(Oc1ccc(-c2nc(-c3ccc4[nH]cnc4c3)no2)cc1C(F)(F)F)C(F)(F)F` (centres unmarked) [Example 48] is 1.5-fold higher in EC50: 4.3 nM for the first, 6.5 nM for the second. The first is the more potent here.

`FC(F)(F)c1cc(-c2nc(-c3ccc4nc[nH]c4c3)no2)ccc1Oc1ccccc1` [Example 121] and `C=CCOc1ccc(-c2nc(-c3ccc4[nH]cnc4c3)no2)cc1C(F)(F)F` [Example 106] are within 1.5-fold of each other in EC50: 12 nM for the first, 8.7 nM for the second.

First: CC(=O)N1CCc2c(-c3noc(-c4ccc(OC(C)C(F)(F)F)c(C(F)(F)F)c4)n3)cccc21 (centres unmarked) [Example 15, 1-acetyl-4-{5-[3-(trifluoromethyl)-4-(2,2,2-trifluoro-1-methylethoxy)phenyl]-1,2,4-oxadiazol-3-yl}indoline]
Second: CC(Oc1ccc(-c2nc(-c3cccc4c3CCN4C)no2)cc1C(F)(F)F)C(F)(F)F (centres unmarked) [Example 152]
The EC50 of the first is 3.6-fold lower: 2.1 nM for the first, 7.6 nM for the second.

Going from `COCC(=O)n1ccc2c(-c3noc(-c4ccc(OC(C)C(F)(F)F)c(C(F)(F)F)c4)n3)cccc21` (centres unmarked) [Example 182] to `CC(Oc1ccc(-c2nc(-c3cccc4c3ccn4C)no2)cc1C(F)(F)F)C(F)(F)F` (centres unmarked) [Example 151], the EC50 rises from 4.2 nM to 11 nM (2.6-fold).

Going from `CC(Oc1ccc(-c2nc(-c3cccc4c3ccn4CC(N)=O)no2)cc1C#N)C(F)(F)F` (centres unmarked) [Example 163] to `Cc1cc(-c2nc(-c3cccc4c3ccn4CC(=O)NCCO)no2)ccc1O[C@@H](C)C(F)(F)F` [Example 193], the EC50 rises from 1.9 nM to 6.8 nM (3.6-fold). The first is the more potent here.

`Cc1c(-c2noc(-c3ccc(OC(C)C(F)(F)F)c(C(F)(F)F)c3)n2)ccc2[nH]cnc12` (centres unmarked) [Example 37] and `C[C@@H](Oc1ccc(-c2nc(-c3ccc4[nH]cnc4c3)no2)cc1C(F)(F)F)C(F)(F)F` [Example 120] are within 1.5-fold of each other in EC50: 5.4 nM for the first, 4.6 nM for the second.

`NC(=O)Cn1ccc2c(-c3noc(-c4ccc(C5CCCC5)c(C(F)(F)F)c4)n3)cccc21` [Example 81] and `C[C@H](Oc1ncc(-c2nc(-c3cccc4c3ccn4CC(N)=O)no2)cc1Cl)C(F)(F)F` [Example 173] are within 1.5-fold of each other in EC50: 5.9 nM for the first, 4.3 nM for the second.

First: CC(Oc1ccc(-c2nc(-c3ccc4[nH]c(CCS(C)(=O)=O)nc4c3)no2)cc1C(F)(F)F)C(F)(F)F (centres unmarked) [Example 23, 2-[2-(methylsulfonyl)ethyl]-5-{5-[3-(trifluoromethyl)-4-(2,2,2-trifluoro-1-methylethoxy)phenyl]-1,2,4-oxadiazol-3-yl}-1H-benzimidazole hydrochloride]
Second: CC(Oc1ccc(-c2nc(-c3ccc4cn[nH]c4c3)no2)cc1C(F)(F)F)C(F)(F)F (centres unmarked) [Example 65]
The EC50 of the first is 1.7-fold higher: 6.8 nM for the first, 4 nM for the second.

`FC(F)COc1ccc(-c2nc(-c3ccc4[nH]cnc4c3)no2)cc1C(F)(F)F` [Example 110] and `C[C@H](Oc1ccc(-c2nc(-c3ccc4[nH]cnc4c3)no2)cc1Cl)C(F)(F)F.Cl` [Ex 199] are within 1.5-fold of each other in EC50: 6.2 nM for the first, 5 nM for the second.

`CC(Oc1ccc(-c2nc(-c3cccc4c3CCN4)no2)cc1C(F)(F)F)C(F)(F)F` (centres unmarked) [Example 26, 4-{5-[3-(trifluoromethyl)-4-(2,2,2-trifluoro-1-methylethoxy)phenyl]-1,2,4-oxadiazol-3-yl}indoline] and `CC(Oc1ccc(-c2nc(-c3cccc4nccn34)no2)cc1C(F)(F)F)C(F)(F)F` (centres unmarked) [Example 59] are within 1.5-fold of each other in EC50: 4.7 nM for the first, 3.8 nM for the second.

Compared with `NC(=O)Cn1ccc2c(-c3noc(-c4cnc(OC(CF)CF)c(Cl)c4)n3)cccc21` [Example 143], `O=C(Cn1ccc2c(-c3noc(-c4ccc(OC(CF)CF)c(Cl)c4)n3)cccc21)NCCO` [Example 197] is 1.6-fold lower in EC50: 5.4 nM for the first, 3.3 nM for the second. The second is the more potent here.

With `CC(Oc1ccc(-c2nc(-c3ccc4nc[nH]c4c3)no2)cc1C(F)F)C(F)(F)F` (centres unmarked) [Example 87] the EC50 was 3.7 nM.
